From patent publication US10874103B2, “Antibacterial composition comprising an acetal or a long-chain alkyl hexitane ether” (TEREOS STARCH & SWEETENERS BELGIUM, priority 2014, dated 2020)

Test system: Enterococci: E. faecium strains
Experiment: MIC microdilution on wider panel (Example 8), E. faecium strains
Assay type: cell-based
Description: The cultures studied, freshly isolated (after incubation on a blood agar at 37° C. for 18 h), are taken up in sterile water (10 mL) until a 0.5 McFarland (Mc) suspension i.e. at 1 to 2×10^8 CFU (bacteria)/cm^3 is obtained. The bacterial suspension was then diluted to obtain a final concentration of 1×10^6 CFU/cm^3.
Each well contains an identical quantity of Mueller-Hinton medium (a rich medium for bacterial culture) and bacteria with final 0.5×10^6 CFU/cm^3.
The test compounds of interest are solubilized in ethanol or DMSO at 25 mg/mL before being diluted to different concentrations two by two. On the multiwell plate, a first series has been planned comprising the culture medium without the test compound of interest. It corresponds to the growth control (control well). These controls serve as reference for comparing bacterial growth with that of the subsequent wells comprising different concentrations of the test compound of interest. The second series of wells comprises the mother solution for the test compound of interest for a concentration in the wells of 256 mg (7 mM). Each series of wells was diluted two by two until the last series for a final concentration of 0.25 mg/L (0.0007 mM). Each concentration is duplicated in the same plate. The plate is incubated for 18 h at 37° C. […] If there is antibacterial activity, the bacterial growth is inhibited, which means that no turbidity or bacterial residue is present.
The minimum inhibitory concentrations (MIC) are tested on Gram-positive bacterial strains according to the recommendations of the “Clinical Laboratory Standards Institute” (Clinical-Laboratory-Standards-Institute, 6th ed. Approved standard M100-S17. CLSI, Wayne, Pa., 2007). The clinical strains have been isolated in the Hospice de Lyon.
Enterococci: E. faecium (CIP 103510), clinical strains of Enterococci E. faecium: Van A 0151850763 (hereinafter Van A); strain 015 205731401 (hereinafter 1401), […]

For Dodecyl-1,4-d-sorbitan [Example 2e], the “Minimum inhibitory concentration (MIC) CIP 103510” value (E. faecium CIP 103510) was 16 µg/mL, the “Minimum inhibitory concentration (MIC) Van A” value (clinical E. faecium Van A 0151850763) was 16 µg/mL and the “Minimum inhibitory concentration (MIC) 1401” value (clinical E. faecium strain 015 205731401) was 8 µg/mL.
